# Experimental data published in paper PMC12192727, “Strategies to Develop Na,K-ATPase-α4 Inhibitors as Male Contraceptives” (International Journal of Molecular Sciences, 2025).
# Where two headings read alike, the source gives them in different places.
# What was measured:
# [1] = system: mouse sperm; assay: Sperm viability (Live/Dead assay); type: cell-based; settings: 10 µM, one hour
# Experimental: To assess whether 13 and 45 affected sperm viability, we treated mouse sperm with the compounds for one hour at 10 µM and determined the number of live and dead cells in the sample.
# Figure 5 Cell viability after treatment with compounds 13 and 45. Mouse caudal epididymal sperm was subjected to a medium not supporting capacitation to 10 µM of 13 and 45. After one hour, sperm was subjected to the Live/Dead assay as per the manufacturer’s recommendations. Cells were counted as viable/non-viable and expressed as the mean ± SEM of three determinations.
# [2] = system: Salmonella typhimurium strains TA98 and TA100; assay: Mini Ames test; type: cell-based; settings: with and without S9
# Experimental: The mutagenic potential of 45 was evaluated using the Mini Ames test, which measures reverse mutations at the histidine locus in Salmonella typhimurium strains TA98 and TA100. The assay was conducted with and without exogenous metabolic activation (β-naphthoflavone/phenobarbital-induced rat liver S9). The experimental details are reported in the Supporting Information).
# [3] = target: T1, NKAα1 (Rattus norvegicus, UniProt P06685); assay: Na,K-ATPase activity assay, α1β1 expressed in Sf9 insect cells; type: biochemical; settings: read-out: NKA Isoform Specificity (IC50 M) NKAα1
# T1 construct: made in house; host or cells: Sf9 insect cells (baculovirus infection), cell homogenates
# Experimental: (§1) The NKA α1 and α4 isoforms were expressed in Sf9 insect cells as previously described. Briefly, cells were cultured in suspension at 27 °C in Grace’s medium (JRH Biosciences, Lenexa, KS, USA) with 3.3 g/L of lactalbumin hydrolysate and 3.3 g/L of yeastolate and supplemented with 10% (v/v) fetal bovine serum, 100 units/mL of penicillin, 100 μg/mL of streptomycin, and 0.25 μg/mL of fungizone. For infections, cells were placed on 150 mm Petri dishes and infected with baculoviruses coding for the NKA α1β1 and α4β1 isozymes. Three days after infection, cells were scraped from the culture plates, centrifuged at 1500× g for 10 min, and washed twice in 10 mM imidazole hydrochloride (pH 7.5) and 1 mM EGTA (suspension buffer). Cells were then placed in a suspension buffer plus the addition of 0.32 M sucrose and stored at −20 °C or directly used for assays.
# The Na,K-ATPase activity of insect cell homogenates was determined by measuring the initial rate of release of ^32Pi from γ[^32P]-ATP as described. […] Enzymatic activity was determined as the difference in ATP hydrolysis in the absence and presence of 1 mM ouabain.
# Figure 6 Selectivity of 13 and 45 on NKAα4 over the NKAα1 isoform. […] The hydrolysis of ATP in the presence of saturating concentrations of Na^+, K^+, and Mg^2+ was measured using γ[^32P]-ATP. […]
# [4] = system: rat hepatocytes; assay: Metabolic stability in rat hepatocytes; type: in vitro ADME
# Experimental: (§2) The in vitro metabolic half-life (t1/2) is calculated using the slope of the log−linear regression from the percentage of the parent compound remaining versus the time relationship (κ). The experimental details are reported in the Supporting Information (Tables S6 and S7).
# [5] = Metabolic stability in rat hepatocytes; type: in vitro ADME; settings: rat hepatocytes
# Experimental: as §2
# [6] = target: T2, NKAα4 (Rattus norvegicus, UniProt Q64541); assay: Na,K-ATPase activity assay, α4β1 expressed in Sf9 insect cells; type: biochemical
# T2 construct: made in house; host or cells: Sf9 insect cells (baculovirus infection), cell homogenates
# Experimental: as §1
# The Na,K-ATPase activity of insect cell homogenates was determined by measuring the initial rate of release of ^32Pi from γ[^32P]-ATP as described. The incubation medium (0.25 mL final volume) contained 120 mM NaCl, 30 mM KCl, 3 mM MgCl2, 0.2 mM EGTA, 30 mM Tris-HCl (pH 7.4), and different concentrations of the corresponding compounds. The assay was started by the addition of ATP with 0.2 μCi γ[^32P]-ATP (2 mM final concentration). After 30 min of incubation at 37 °C, the reaction was stopped with trichloroacetic acid, and 5% ammonium molybdate in 4 N H2SO4 was used to complex the ^32Pi released in the Na,K-ATPase reaction. The phosphomolybdate was extracted with isobutanol as described, and 170 μL of the organic phase was taken and subjected to liquid scintillation counting. Enzymatic activity was determined as the difference in ATP hydrolysis in the absence and presence of 1 mM ouabain.
# Figure 6 Selectivity of 13 and 45 on NKAα4 over the NKAα1 isoform. […] The hydrolysis of ATP in the presence of saturating concentrations of Na^+, K^+, and Mg^2+ was measured using γ[^32P]-ATP. The curves represent the best fit of the experimental data to a single population of binding sites. Each value is the mean ± SEM of three independent experiments.
# [7] = system: human hepatocytes; assay: Metabolic stability in human hepatocytes; type: in vitro ADME
# Experimental: as §2
# [8] = Metabolic stability in human hepatocytes; type: in vitro ADME; settings: human hepatocytes
# Experimental: as §2
# [9] = α4β1 in Sf9 insect cells, ± SEM of three experiments
# T2 sequence (Q64541 whole entry, other chains not shown): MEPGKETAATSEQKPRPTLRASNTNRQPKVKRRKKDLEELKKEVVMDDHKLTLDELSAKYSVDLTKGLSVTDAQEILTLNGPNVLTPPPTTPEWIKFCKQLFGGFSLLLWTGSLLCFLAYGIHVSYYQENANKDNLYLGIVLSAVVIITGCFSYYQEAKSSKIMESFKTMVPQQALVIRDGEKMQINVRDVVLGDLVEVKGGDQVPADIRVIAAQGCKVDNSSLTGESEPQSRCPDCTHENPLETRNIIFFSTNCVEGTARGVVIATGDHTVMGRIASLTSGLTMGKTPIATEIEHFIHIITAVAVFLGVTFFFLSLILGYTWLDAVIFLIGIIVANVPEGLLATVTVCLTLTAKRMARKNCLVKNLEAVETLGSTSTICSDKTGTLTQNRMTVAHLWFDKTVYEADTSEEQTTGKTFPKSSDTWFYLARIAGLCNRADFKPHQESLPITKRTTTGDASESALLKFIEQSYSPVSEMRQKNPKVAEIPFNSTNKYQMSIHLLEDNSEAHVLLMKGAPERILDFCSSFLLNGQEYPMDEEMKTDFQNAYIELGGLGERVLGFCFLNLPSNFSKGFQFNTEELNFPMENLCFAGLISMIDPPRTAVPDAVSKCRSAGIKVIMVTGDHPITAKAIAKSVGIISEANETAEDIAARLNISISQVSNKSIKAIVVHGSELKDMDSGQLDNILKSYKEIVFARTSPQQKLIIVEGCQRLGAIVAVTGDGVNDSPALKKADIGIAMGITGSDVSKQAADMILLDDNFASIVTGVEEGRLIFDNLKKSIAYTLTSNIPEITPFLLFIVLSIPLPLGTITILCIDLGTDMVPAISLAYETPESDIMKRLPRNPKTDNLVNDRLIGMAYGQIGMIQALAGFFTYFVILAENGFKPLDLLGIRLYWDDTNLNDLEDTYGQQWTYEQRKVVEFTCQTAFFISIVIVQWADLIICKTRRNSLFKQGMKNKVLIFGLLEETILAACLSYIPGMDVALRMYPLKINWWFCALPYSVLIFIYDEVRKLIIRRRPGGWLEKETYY
smiles,measurement,setting,value
"CC12CCC(=O)C=C1CCCC2n1cc(-c2ccccc2)nn1 (stereo not drawn) [Compound 45, 4a-Methyl-5-(4-phenyl-1H-1,2,3-triazol-1-yl)-4,4a,5,6,7,8-hexahydronaphthalen-2(3H)-one]",Sperm viability,[1],the same as that of the untreated controls
same,Mini Ames,[2],Mini Ames ^e: negative
same,IC50,[3],> 100000 nM
same,Remaining Percentage (%),"[4]; rat boiled hepatocytes, 0 min",100.00%
same,Remaining Percentage (%),"[4]; rat boiled hepatocytes, 15 min",101.65%
same,Remaining Percentage (%),"[4]; rat boiled hepatocytes, 30 min",104.87%
same,Remaining Percentage (%),"[4]; rat boiled hepatocytes, 60 min",104.47%
same,Remaining Percentage (%),"[4]; rat boiled hepatocytes, 90 min",104.04%
same,Remaining Percentage (%),"[4]; rat boiled hepatocytes, 120 min",104.50%
same,Hepatic Extraction Ratio (E),[4]; rat hepatocytes,0.86
same,Predicted hepatic CL,[4]; rat hepatocytes,47.44 mL/min/kg
same,Remaining Percentage (%),"[4]; rat hepatocytes, 0 min",100.00%
same,Remaining Percentage (%),"[4]; rat hepatocytes, 15 min",51.55%
same,Remaining Percentage (%),"[4]; rat hepatocytes, 30 min",26.35%
same,Remaining Percentage (%),"[4]; rat hepatocytes, 60 min",9.77%
same,Remaining Percentage (%),"[4]; rat hepatocytes, 90 min",3.36%
same,Remaining Percentage (%),"[4]; rat hepatocytes, 120 min",1.25%
same,"Metabolic Stability in Hepatocytes (60 min), compound remaining","[4]; rat, 60 min",10%
same,hepatocyte CLint at 1 μM,[5]; read-out: In vitro Clint,72.2 µL/min/1e6 cells
same,half-life at 1 µM,"[5]; rat, hepatocytes, read-out: In vitro T1/2",19.2 min
same,CLint scaled at 1 µM,"[5]; rat, hepatocytes, read-out: Scale-up Clint",338 mL/min/kg
same,NKA Isoform Specificity (IC50 M) NKAα4,[6]; [9],nanomolar range
same,IC50,"[6]; α4β1 in Sf9 insect cells, ± SEM of three experiments, read-out: NKA Isoform Specificity (IC50 M) NKAα4",2.7 nM
same,Remaining Percentage (%),"[7]; human boiled hepatocytes, 0 min",100.00%
same,Remaining Percentage (%),"[7]; human boiled hepatocytes, 15 min",105.47%
same,Remaining Percentage (%),"[7]; human boiled hepatocytes, 30 min",106.55%
same,Remaining Percentage (%),"[7]; human boiled hepatocytes, 60 min",108.22%
same,Remaining Percentage (%),"[7]; human boiled hepatocytes, 90 min",105.29%
same,Remaining Percentage (%),"[7]; human boiled hepatocytes, 120 min",107.99%
same,Hepatic Extraction Ratio (E),[7]; human hepatocytes,0.82
same,Predicted hepatic CL,[7]; human hepatocytes,16.89 mL/min/kg
same,Remaining Percentage (%),"[7]; human hepatocytes, 0 min",100.00%
same,Remaining Percentage (%),"[7]; human hepatocytes, 15 min",83.47%
same,Remaining Percentage (%),"[7]; human hepatocytes, 30 min",64.22%
same,Remaining Percentage (%),"[7]; human hepatocytes, 60 min",39.26%
same,Remaining Percentage (%),"[7]; human hepatocytes, 90 min",22.24%
same,Remaining Percentage (%),"[7]; human hepatocytes, 120 min",11.51%
same,"Metabolic Stability in Hepatocytes (60 min), compound remaining","[7]; human, 60 min",39%
same,hepatocyte CLint at 1 μM,[8]; read-out: In vitro Clint,36 µL/min/1e6 cells
same,CLint scaled at 1 µM,[8]; read-out: Scale-up Clint,91.7 mL/min/kg
same,half-life at 1 µM,"[8]; human, hepatocytes, read-out: In vitro T1/2",38.5 min
"C[C@]12CC[C@H]3[C@@H](CC=C4C[C@@H](O)CC[C@@]43C)[C@@H]1CC[C@@H]2c1cn(Cc2ccccc2)nn1 [Compound 13, (3S,8S,9S,10R,13S,14S,17S)-17-(1-Benzyl-1H-1,2,3-triazol-4-yl)-10,13-dimethyl-2,3,4,7,8,9,10,11,12,13,14,15,16,17-tetradecahydro-1H-cyclopenta[a]phenanthren-3-ol]",Sperm viability,[1],the same as that of the untreated controls
same,IC50,[3],> 100000 nM
same,IC50,[6],0.1 nM
same,NKA Isoform Specificity (IC50 M) NKAα4,[6]; [9],nanomolar range
